Values joined by “and” are separate entries in the source; they are usually repeats but may differ in a detail not shown here. Identical values can stand only once.
Columns and labels:
[1] = system: cytochrome C; assay: Cytochrome C ELISA in SR human cell line; assay type: cell-based
Description: The 1,2,3-triazole/biquinolinone derivative 6c was evaluated for cytochrome C against the SR human cell line and the results are listed in Table 4.
Cells were collected from American Type Culture Collection to be grown in […] containing 10% fetal bovine serum at 37 °C, stimulated with the compounds to be tested for cytochrome C using Cytochrome C Human ELISA Kit (ab119521—Cytochrome C Human ELISA Kit, Vaccera institute, Egypt) (See Supplementary Materials). […]
• Equilibrate all materials and prepared reagents to room temperature prior to use.
• It is recommended to assay all standards, controls and samples in duplicate.
13.1. Prepare all reagents, working standards, and samples as directed in the previous sections.
Determine the number of microplate strips required to test the desired number of samples plus […]
appropriate number of wells needed for running blanks and standards. Predilute samples before […]
starting the test procedure with one-part sample to one-part 1X Assay Buffer.
13.2. Wash the microplate twice with approximately 400 μL 1X Wash Buffer per well with […]
thorough aspiration of microplate contents between washes. Allow the 1X Wash Buffer to remain in […]
Note: The color development on the plate should be monitored and the substrate reaction stopped […]
the stop solution when the highest standard has developed a dark blue color. Alternatively, the color development can be monitored by the ELISA reader at 620 nm. […]
Note: It is important that the Stop Solution is mixed quickly and uniformly throughout the microplate to completely inactivate the enzyme. Results must be read immediately after the Stop Solution is added or within one hour if the microplate strips are stored at 2 - 8°C in the dark.
13.15. Read absorbance of each microplate on a spectrophotometer using 450 nm as the primary wavelength (optionally 620 nm as the reference wavelength; 610 nm to 650 nm is acceptable).
Blank the plate reader according to the manufacturer's instructions by using the blank wells.
Determine the absorbance of both the samples and the standards. […]

[2] = system: testis of I/R rats; assay: Testicular histopathology (H&E, Cosentino's score, Johnson's scoring) in I/R rats; assay type: in vivo; conditions: for Histopathological/spermatogenesis scoring difference compared to the reference (NAC): Cosentino's score and Johnson's scoring, p-value < 0.005; for Histopathological finding in testis sections: H&E sections
Excerpt: Also, it decreased spermatogenesis when compared to the control group by using Johnson’s scoring system (Figure 9B).
The seminiferous tubules were seen lined with stratified testicular epithelium rested on basement membranes. […] Ruptured tubules and distorted Leydig cells and sloughed cells could be also observed (Figure 10B). […] Distorted Leydig cells with dilated blood vessels (BV) were frequently seen among the sections (Figure 12). […] Dilated blood vessels and the presence of amyloid substance were also found (Figure 13).
Multiple testicular specimens were stained by hematoxylin-eosin (ab245880, Abcam, Cambridge, MA, USA) using Cosentino’s score for semi-quantitation of pathological changes in different seminiferous tubules. By using Johnson’s scoring system, the effect of ischemia on the spermatogenesis can be studied (See Supporting Materials).
Semi-quantitative data were measured and counted per section in ten randomly selected non-overlapping fields using power × 400 magnifications of the sections from each rat. The results were carried out using the Image J program analysis software (Image J 1.48V, Maryland, MD, USA; Wayne Rasb and National Institutes of Health). […]
4. Histopathological Investigation
Multiple testicular specimens were fixed in Bouin's solution for about 24 hour, dehydrated in an alcohol grades, cleaned with xylene and then embedded in paraffin wax. Tissue sections (about six μm) were stained by haematoxylin–eosin (H&E) and were studied by an experienced histologist. In the current study, we used Cosentino's score for semi-quantitation of pathological changes on different seminiferous tubules in the whole groups by grading these tubules between one and four, and the mean scores were taken by dividing the totality to the whole number of testicular tubules .
By using Johnson’s scoring system, the effect of ischemia on the spermatogenesis can be studied.
The grades were counted one to ten, and the total scores were taken by dividing the totality to the whole number of testicular tubules.
4.2.Histopathological grading score (Cosentino's score)
I Normal testicular structure
II less orderly germinal cells with closely packed seminiferous tubules III Anarchic sloughed germinal cells, with less pyknotic nuclei size and less distinct seminiferous […]
IV Closely packed seminiferous tubules and coagulative necrosis
Note: Semi-quantitation of pathological changes on different seminiferous tubules in the whole groups by grading the tubules between 1 and 4, and the mean scores were obtained by dividing the totality to the whole number of testicular tubules.
4.3.Spermatogenesis grading; Score Morphological picture
10 Normal spermatogenesis
9 less defect in spermatogenesis with multiple late spermatids, little disorganized epithelium 8 Less than five spermatozoa/tubule, less late spermatids
7 Absence of spermatozoa, absent late spermatids, more early spermatids 6 No spermatozoa, absence of late spermatids with little early spermatids 5 No spermatozoa or spermatids, more spermatocytes
4 No spermatozoa or spermatids, fewer spermatocytes
2 No germinal cells, only Sertoli cells
1 No seminiferous epithelium
Note: By using Johnsen's scoring system, the effect of ischaemia on the spermatogenesis can be detected. The grades were from 1 to 10, and the total scores were taken by dividing to the whole number of testicular tubules.

melting point [°C] | SMILES | Cyt C Conc [1] | Histopathological/spermatogenesis scoring difference compared to the reference (NAC) [2] | Histopathological finding in testis sections [2] | Cyt C Fold Change ([1]; down-expression relative to control) [fold]
272 to 274 | Cc1ccc2[nH]c(=O)cc(OCc3cn(-c4cc(=O)[nH]c5ccccc45)nn3)c2c1 [6e, 6-Methyl-4-((1-(2-oxo-1,2-dihydroquinolin-4-yl)-1H-1,2,3-triazol-4-yl)methoxy)quinolin-2(1H)-one] |  | weak significant differences | dilated seminiferous tubules | 
300 to 302 | COc1ccc2[nH]c(=O)cc(OCc3cn(-c4cc(=O)[nH]c5ccccc45)nn3)c2c1 [6g, 6-Methoxy-4-((1-(2-oxo-1,2-dihydroquinolin-4-yl)-1H-1,2,3-triazol-4-yl)methoxy)quinolin-2-(1H)-one] |  | weak significant differences | dilated seminiferous tubules | 

Further lines, the molecule ahead of its results:

SMILES | melting point [°C] | Cyt C Conc [1] | Histopathological/spermatogenesis scoring difference compared to the reference (NAC) [2] | Histopathological finding in testis sections [2] | Cyt C Fold Change ([1]; down-expression relative to control) [fold]
COc1ccc2[nH]c(=O)cc(-n3cc(COc4cc(=O)[nH]c5ccccc45)nn3)c2c1 [6c, 6-Methoxy-4-(4-(((2-oxo-1,2-dihydroquinolin-4-yl)oxy)methyl)-1H-1,2,3-triazol-1-yl)-quinolin-2(1H)-one] | 295 to 297 | 0.28 ng/mL and 0.28 ± 0.011 ng/mL |  |  | 
Cn1c(=O)cc(-n2cc(COc3cc(=O)[nH]c4ccccc34)nn2)c2ccccc21 [6d, 1-Methyl-4-(4-(((2-oxo-1,2-dihydroquinolin-4-yl)oxy)methyl)-1H-1,2,3-triazol-1-yl)quinolin-2(1H)-one] | 285 to 287 |  | highly significant histopathological difference | ruptured seminiferous tubules with distorted Leydig cells | 
Cc1ccc2[nH]c(=O)cc(OCc3cn(-c4cc(=O)[nH]c5ccc(C)cc45)nn3)c2c1 [6f, 6-Methyl-4-((1-(6-methyl-2-oxo-1,2-dihydroquinolin-4-yl)-1H-1,2,3-triazol-4-yl)meth-oxy)quinolin-2(1H)-one] | 270 to 272 |  | highly significant histopathological difference | ruptured seminiferous tubules with distorted Leydig cells | 
CC(=O)N[C@@H](CS)C(=O)O [NAC, N-acetylcysteine, reference compound] |  | 0.24 ± 0.019 ng/mL |  | more or less normal seminiferous tubules and Leydig cells except some areas displayed distorted tubules and widening of inter-tubular spaces | 4.13
